Test results: the supplement of paper PMC11061612

Columns and labels:
Paclitaxel = compound: CC(=O)O[C@H]1C(=O)[C@@]2(C)[C@H]([C@H](OC(=O)c3ccccc3)[C@]3(O)C[C@H](OC(=O)[C@H](O)[C@@H](NC(=O)c4ccccc4)c4ccccc4)C(C)=C1C3(C)C)[C@]1(OC(C)=O)CO[C@@H]1C[C@@H]2O [Paclitaxel]; conditions: max 3 µM
In short: (§1)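 Following 24 hours at 37°C and 5% CO2, cancer cell lines in 1536-well plates with 7.5 μl DMEM/F12 or RPMI and 10% FBS were dosed for 72 hours, final DMSO typically being 0.2%. CellTiter-Glo 2.0 luminescence, scaled between blank-well and DMSO-well means, gave the viability readout. Dose responses were fitted to a two-parameter logistic curve with a non-linear mixed effects model, and the single-agent IC50 was derived from this fit.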

AZD5153 = compound: COc1nnc2ccc(N3CCC(c4ccc(OCCN5CCN(C)C(=O)[C@H]5C)cc4)CC3)nn12 [AZD5153]; conditions: max 1 µM
In short: as §1

AZD5991 = compound: Cc1c2c(nn1C)CSCc1cc(n(C)n1)CSc1cc(c3ccccc3c1)OCCCc1c(C(=O)O)n(C)c3c-2c(Cl)ccc13 [AZD5991]; conditions: max 1 µM
In short: as §1

Alisertib = compound: COc1cc(Nc2ncc3c(n2)-c2ccc(Cl)cc2C(c2c(F)cccc2OC)=NC3)ccc1C(=O)O [Alisertib]; conditions: max 10 µM
In short: as §1

Savolitinib = compound: C[C@@H](c1ccc2nccn2c1)n1nnc2ncc(-c3cnn(C)c3)nc21 [Savolitinib]; conditions: max 1 µM
In short: as §1

Doxorubicin = compound: COc1cccc2c1C(=O)c1c(O)c3c(c(O)c1C2=O)C[C@@](O)(C(=O)CO)C[C@@H]3O[C@H]1C[C@H](N)[C@H](O)[C@H](C)O1 [Doxorubicin]; conditions: max 1 µM
In short: as §1

SG3199 = compound: CC1=CN2[C@@H](C1)C=NC3=CC(=C(C=C3C2=O)OC)OCCCCCOC4=C(C=C5C(=C4)N=C[C@@H]6CC(=CN6C5=O)C)OC [SG3199]; conditions: max 0.001 µM
In short: as §1

Taselisib = compound: Cc1nc(-c2cn3c(n2)-c2ccc(-c4cnn(C(C)(C)C(N)=O)c4)cc2OCC3)n(C(C)C)n1 [Taselisib]; conditions: max 10 µM
In short: as §1

Crizotinib = compound: C[C@@H](Oc1cc(-c2cnn(C3CCNCC3)c2)cnc1N)c1c(Cl)ccc(F)c1Cl [Crizotinib]; conditions: max 10 µM
In short: as §1

AZD7648 = compound: Cc1cc2ncnn2cc1Nc1ncc2c(n1)n(C1CCOCC1)c(=O)n2C [AZD7648]; conditions: max 10 µM
In short: as §1

5-Fluorouracil = compound: O=c1[nH]cc(F)c(=O)[nH]1 [5-Fluorouracil]; conditions: max 20 µM
In short: as §1

Trametinib = compound: CC(=O)Nc1cccc(-n2c(=O)n(C3CC3)c(=O)c3c(Nc4ccc(I)cc4F)n(C)c(=O)c(C)c32)c1 [Trametinib]; conditions: max 1 µM
In short: as §1

Dasatinib = compound: CC1=C(C(=CC=C1)Cl)NC(=O)C2=CN=C(S2)NC3=CC(=NC(=N3)C)N4CCN(CC4)CCO [Dasatinib]; conditions: max 2 µM
In short: as §1

Lapatinib = compound: CS(=O)(=O)CCNCc1ccc(-c2ccc3ncnc(Nc4ccc(OCc5cccc(F)c5)c(Cl)c4)c3c2)o1 [Lapatinib]; conditions: max 10 µM
In short: as §1

Olaparib = compound: O=C(c1cc(Cc2n[nH]c(=O)c3ccccc23)ccc1F)N1CCN(C(=O)C2CC2)CC1 [Olaparib]; conditions: max 10 µM
In short: as §1

AZD0156 = compound: CN(C)CCCOc1ccc(-c2ccc3ncc4c(c3c2)n(C2CCOCC2)c(=O)n4C)cn1 [AZD0156]; conditions: max 3 µM
In short: as §1

Palbociclib = compound: CC(=O)c1c(C)c2cnc(Nc3ccc(N4CCNCC4)cn3)nc2n(C2CCCC2)c1=O [Palbociclib]; conditions: max 10 µM
In short: as §1

AZD2811 = compound: CCN(CCO)CCCOc1ccc2c(Nc3cc(CC(=O)Nc4cccc(F)c4)[nH]n3)ncnc2c1 [AZD2811]; conditions: max 1 µM
In short: as §1

[1] = compound: O=C(Nc1ccc2[nH]nc(-c3ccncc3)c2c1)[C@@H]1CCN(CC(=O)N2CCN(c3ccc(-c4ncccn4)cc3)CC2)C1; conditions: max 5 µM
In short: as §1

Gefitinib = compound: COc1cc2ncnc(Nc3ccc(F)c(Cl)c3)c2cc1OCCCN1CCOCC1 [Gefitinib]; conditions: max 10 µM
In short: as §1

Prexasertib = compound: COc1cccc(OCCCN)c1-c1cc(Nc2cnc(C#N)cn2)n[nH]1 [Prexasertib]; conditions: max 1 µM
In short: as §1

SN-38 = compound: CCc1c2c(nc3ccc(O)cc13)-c1cc3c(c(=O)n1C2)COC(=O)[C@]3(O)CC [SN-38]; conditions: max 0.3 µM
In short: as §1

Selumetinib = compound: Cn1cnc2c(F)c(Nc3ccc(Br)cc3Cl)c(C(=O)NOCCO)cc21 [Selumetinib]; conditions: max 10 µM
In short: as §1

SRA737 = compound: N#Cc1cnc(Nc2cc(NC[C@H]3CNCCO3)c(C(F)(F)F)cn2)cn1 [SRA737]; conditions: max 10 µM
In short: as §1

AZD8186 = compound: C[C@@H](Nc1cc(F)cc(F)c1)c1cc(C(=O)N(C)C)cc2c(=O)cc(N3CCOCC3)oc12 [AZD8186]; conditions: max 10 µM
In short: as §1

MK-2206 = compound: NC1(c2ccc(-c3nc4ccn5c(=O)[nH]nc5c4cc3-c3ccccc3)cc2)CCC1 [MK-2206]; conditions: max 10 µM
In short: as §1

AZD1390 = compound: CC(C)n1c(=O)n(C)c2cnc3cc(F)c(-c4ccc(OCCCN5CCCCC5)nc4)cc3c21 [AZD1390]; conditions: max 0.3 µM
In short: as §1

AZD1775 = compound: C=CCn1c(=O)c2cnc(Nc3ccc(N4CCN(C)CC4)cc3)nc2n1-c1cccc(C(C)(C)O)n1 [AZD1775]; conditions: max 3 µM
In short: as §1

Etoposide = compound: COc1cc([C@@H]2c3cc4c(cc3[C@@H](O[C@@H]3O[C@@H]5CO[C@@H](C)O[C@H]5[C@H](O)[C@H]3O)[C@H]3COC(=O)[C@H]23)OCO4)cc(OC)c1O [Etoposide]; conditions: max 10 µM
In short: as §1

AZD6738 = compound: C[C@@H]1COCCN1C2=NC(=NC(=C2)C3(CC3)[S@](=N)(=O)C)C4=C5C=CNC5=NC=C4 [AZD6738]; conditions: max 10 µM
In short: as §1

Gemcitabine = compound: Nc1ccn([C@@H]2O[C@H](CO)[C@@H](O)C2(F)F)c(=O)n1 [Gemcitabine]; conditions: max 0.3 µM
In short: as §1

Venetoclax = compound: CC1(C)CCC(CN2CCN(c3ccc(C(=O)NS(=O)(=O)c4ccc(NCC5CCOCC5)c([N+](=O)[O-])c4)c(Oc4cnc5[nH]ccc5c4)c3)CC2)=C(c2ccc(Cl)cc2)C1 [Venetoclax]; conditions: max 1 µM
In short: as §1

Carboplatin = compound: C1CC(C1)(C(=O)[O-])C(=O)[O-].N.N.[Pt+2] [Carboplatin]; conditions: max 10 µM
In short: as §1

AZD5363 = compound: C1CN(CCC1(C(=O)N[C@@H](CCO)C2=CC=C(C=C2)Cl)N)C3=NC=NC4=C3C=CN4 [AZD5363]; conditions: max 10 µM
In short: as §1

AZD4320 = compound: CN(CC[C@H](CSC1=CC=CC=C1)NC2=C(C=C(C=C2)S(=O)(=O)NC(=O)C3=CC=C(C=C3)N4CCC(CC4)[C@H](C5=CC=CC=C5C6=CC=C(C=C6)Cl)O)S(=O)(=O)C(F)(F)F)CCO [AZD4320]; conditions: max 1 µM
In short: as §1

Cell Line | IC50, cell viability 72 h (Paclitaxel) [nM] | IC50, cell viability 72 h (AZD5153) [nM] | IC50, cell viability 72 h (AZD5991) [nM] | IC50, cell viability 72 h (Alisertib) [nM] | IC50, cell viability 72 h (Savolitinib) [nM] | IC50, cell viability 72 h (Doxorubicin) [nM] | IC50, cell viability 72 h (SG3199) [nM] | IC50, cell viability 72 h (Taselisib) [nM] | IC50, cell viability 72 h (Crizotinib) [nM] | IC50, cell viability 72 h (AZD7648) [nM] | IC50, cell viability 72 h (5-Fluorouracil) [nM] | IC50, cell viability 72 h (Trametinib) [nM] | IC50, cell viability 72 h (Dasatinib) [nM] | IC50, cell viability 72 h (Lapatinib) [nM] | IC50, cell viability 72 h (Olaparib) [nM] | IC50, cell viability 72 h (AZD0156) [nM] | IC50, cell viability 72 h (Palbociclib) [nM] | IC50, cell viability 72 h (AZD2811) [nM] | IC50, cell viability 72 h [1] [nM] | IC50, cell viability 72 h (Gefitinib) [nM] | IC50, cell viability 72 h (Prexasertib) [nM] | IC50, cell viability 72 h (SN-38) [nM] | IC50, cell viability 72 h (Selumetinib) [nM] | IC50, cell viability 72 h (SRA737) [nM] | IC50, cell viability 72 h (AZD8186) [nM] | IC50, cell viability 72 h (MK-2206) [nM] | IC50, cell viability 72 h (AZD1390) [nM] | IC50, cell viability 72 h (AZD1775) [nM] | IC50, cell viability 72 h (Etoposide) [nM] | IC50, cell viability 72 h (AZD6738) [nM] | IC50, cell viability 72 h (Gemcitabine) [nM] | IC50, cell viability 72 h (Venetoclax) [nM] | IC50, cell viability 72 h (Carboplatin) [nM] | IC50, cell viability 72 h (AZD5363) [nM] | IC50, cell viability 72 h (AZD4320) [nM]
NCI-H1435 (Non-Small Cell Lung Carcinoma) | > 3000 | > 1000 | > 1000 | > 10000 | > 1000 | > 1000 | > 1 | > 10000 | > 10000 | > 10000 | > 20000 | > 1000 | > 2000 | > 10000 | > 10000 | > 3000 | > 10000 | > 1000 | > 5000 | > 10000 | > 1000 | > 300 | > 10000 | > 10000 | > 10000 | > 10000 | > 300 | > 3000 | > 10000 | > 10000 | > 300 | > 1000 | > 10000 | > 10000 | 621
NCI-H1648 (Lung Adenocarcinoma) | 12.4 | 203 | > 1000 | 7890 | > 1000 | > 1000 | > 1 | 146 | 8990 | > 10000 | > 20000 | 28.9 | 373 | 1990 | > 10000 | > 3000 | > 10000 | > 1000 | > 5000 | 2340 | 156 | 59.6 | > 10000 | > 10000 | > 10000 | 9830 | > 300 | 1310 | > 10000 | 4850 | > 300 | > 1000 | > 10000 | 9590 | > 1000
NCI-H2009 (Lung Adenocarcinoma) | 162 | > 1000 | > 1000 | 8100 | > 1000 | > 1000 | > 1 | 6380 | > 10000 | > 10000 | > 20000 | 407 | > 2000 | > 10000 | > 10000 | > 3000 | > 10000 | > 1000 | > 5000 | > 10000 | 846 | 190 | > 10000 | > 10000 | > 10000 | > 10000 | > 300 | 1020 | > 10000 | > 10000 | > 300 | > 1000 | > 10000 | > 10000 | > 1000
NCI-H2023 (Non-Small Cell Lung Carcinoma) | 531 | > 1000 | > 1000 | > 10000 | > 1000 | 225 | > 1 | 3870 | > 10000 | > 10000 | 11900 | > 1000 | > 2000 | > 10000 | > 10000 | > 3000 | > 10000 | > 1000 | > 5000 | > 10000 | 30.6 | 110 | > 10000 | > 10000 | > 10000 | > 10000 | > 300 | 2020 | > 10000 | 3500 | 134 | > 1000 | > 10000 | > 10000 | > 1000
NCI-H2452 (Mesothelioma) | 97 | > 1000 | > 1000 | 8630 | > 1000 | > 1000 | > 1 | > 10000 | > 10000 | > 10000 | > 20000 | > 1000 | 531 | > 10000 | > 10000 | > 3000 | > 10000 | > 1000 | > 5000 | > 10000 | 244 | > 300 | > 10000 | > 10000 | > 10000 | > 10000 | > 300 | 710 | > 10000 | > 10000 | > 300 | > 1000 | > 10000 | > 10000 | > 1000
